Test results reported in patent US5629289A, “Cyclic peptide antifungal agents” (Eli Lilly and Company, priority 1995, dated 1997).
Values after ≈ are worked out from the molar mass of the structure shown. *1 amine or outer side, *2 acyl side, *3 side chain or, on linkers, in order; H or OH if unused. Where a SMILES comes first, the peptide text is derived from it. Bridges are numbered along the chain shown (N, C = ends). [ ]: non-standard residue; d: D form. The star is where a group is joined. ξ: configuration not given here. pTerphenylCO(4''-OnC5H11) = CCCCCOc1ccc(-c2ccc(-c3ccc(C(=O)*)cc3)cc2)cc1; ξOrn(4ξ-OH) = O=C(C(CC(O)CN[*:3])N[*:1])[*:2]; ξhTyr(βOH) = NC(C(=O)O)C(O)Cc1ccc(O)cc1; ξPro(3ξ-OH,4ξ-Me) = CC1CNC(C(=O)O)C1O; ξHyp = O=C(O)C1CC(O)CN1

Test system: C. albicans
Format: cell-based
Procedure: Antifungal activity of a test compound is determined in vitro by obtaining the minimum inhibitory concentration (MIC) of the compound using a standard agar dilution test or a disc-diffusion test. The compound is then tested in vivo (in mice) to determine the effective dose of the test compound for controlling a systemic fungal infection. Accordingly, the compound prepared in Example 1C was tested for antifungal activity against C. albicans.

## CCCCCOc1ccc(-c2ccc(-c3ccc(C(=O)NC4CC(O)CNC(=O)C5C(O)C(C)CN5C(=O)CNC(=O)C(C(O)Cc5ccc(O)cc5)NC(=O)C5CC(O)CN5C(=O)CNC4=O)cc3)cc2)cc1 (stereo not shown) [Example 1C] ({pTerphenylCO(4''-OnC5H11)}-[ξOrn(4ξ-OH)]G[ξHyp][ξhTyr(βOH)]G[ξPro(3ξ-OH,4ξ-Me)]; lactam 1-C)
  minimal inhibitory concentration (MIC) against C. albicans: 0.312 µg/mL (≈ 0.306 µM)
